Reference: patent US20110230478A1 (Bayer ScienceCrop AG, priority 2008, published 2011)
Like-named read-outs stand apart in the source and are kept apart here.

Experiments:
[1] = test system: Fusarium proliferatum; assay: Production of Fumonisin FB1 by Fusarium proliferatum (microtitre plate, FB1 by HPLC-MS/MS, growth by OD); format: cell-based; settings: for pI50 Fum: FB1 concentration in medium after 6 days at 20° C., HPLC-MS/MS; for pI50 growth: OD620 at the beginning and after 6 days
[2] = logP by HPLC on reversed-phase columns (C 18), EEC Directive 79/831 Annex V.A8; format: physicochemical
[3] = test system: Gibberella zeae; settings: in vivo
[4] = test system: Fusarium graminearum; format: cell-based; settings: 50 µM
[5] = values marked [b], footnote not given
[6] = method marker [b], footnote not given, compound 68 value matches logP (pH 2.3)
[7] = values marked [c], footnote not given
[8] = method marker [a], footnote not given
[9] = method marker [b] (compound 257: pH2.7)
[10] = reversed-phase HPLC column (C 18), pH 2.3, pH 2.3, 0.1% aqueous phosphoric acid and acetonitrile, read-out: logP [a]
[11] = pH 2.3, 0.1% aqueous phosphoric acid and acetonitrile

C=CCNC(=O)c1ccc(Nc2ncc(Cl)c(NC(C)COC)n2)cc1 (racemic) [Example 136]
pI50 Fum [1]: 4.4 | pI50 growth [1]: <4.3 | logP [2, 5]: 1.64[b]

COCC(C)Nc1nc(Nc2cccc(OC)c2)ncc1Br (centres unmarked) [Example 109]
pI50 Fum [1]: 4.7 | pI50 growth [1]: <4.3 | logP [2, 6]: 1.9[b]

CSc1cccc(Nc2ncc(Cl)c(NC(C)C)n2)c1 [Example 173]
pI50 Fum [1]: 4.8 | pI50 growth [1]: <4.3 | logP ([2]; values marked [a], pH 2.3): 2.36[a]; | logP [2, 7]: 3.89[c] | efficacy [3]: ≥ 80%

CNC(=O)Oc1cccc(Nc2ncc(Cl)c(NC(C)C)n2)c1 [Example 203]
pI50 growth [1]: 4.6 | logP [2, 5]: 1.53[b]

CN(C)S(=O)(=O)c1cccc(Nc2ncc(Cl)c(NC(C)(C)C)n2)c1 [Example 51]
pI50 growth [1]: <4.3 | logP [2, 8]: 2.73[a]

CCCC(CC)Nc1nc(Nc2ccccc2)ncc1Br (centres unmarked) [Example 228]
pI50 growth [1]: <4.3 | logP ([2]; values marked [a], pH 2.3): 2.44[a]

CC(C)Nc1nc(Nc2cccc(O)c2)ncc1Cl [Example 214]
pI50 Fum [1]: 6 | pI50 growth [1]: <4.3 | logP [2, 5]: 1.39[b]

CC(C)Nc1nc(Nc2ccc(CC(=O)C(C)(C)C)cc2)ncc1Cl [Example 199]
pI50 growth [1]: 4.9 | logP [2, 5]: 2.3[b]

COCC(C)Nc1nc(Nc2ccc(OC)c(OC)c2)ncc1Br (centres unmarked) [Example 74]
pI50 Fum [1]: 4.6 | pI50 growth [1]: <4.3 | logP [2, 6]: 1.55[b]

CCc1cccc(Nc2ncc(Cl)c(NC(C)C)n2)c1 [Example 230]
growth inhibition of Fusarium graminearum [4]: 86% | inhibitory activity of DON/AcDON [4]: > 80% | logP [2, 5]: 2.33[b] | logP [2, 7]: 4.25[c];

COCC(C)Nc1nc(Nc2ccc(C(C)=O)cc2)ncc1Cl (centres unmarked) [Example 152]
pI50 Fum [1]: 5 | pI50 growth [1]: <4.3 | logP [2, 5]: 2.02[b]

CCOc1cccc(Nc2ncc(Cl)c(NC(C)COC)n2)c1 (centres unmarked) [Example 96]
logP [2, 6]: 2.04[b]

CC(C)=CCNc1nc(Nc2ccccc2)ncc1Cl [Example 289]
logP [2, 9]: 2.17[b]

COCC(C)Nc1nc(Nc2ccc(S(C)(=O)=O)cc2)ncc1Cl (racemic) [Example 145]
logP [2, 5]: 1.85[b]

CCCCN(C)c1nc(Cl)ncc1Cl [Example V-28]
chromatographic logP ([2]; pH 2.3, 0.1% aqueous phosphoric acid and acetonitrile, read-out: logP [a]): 3.89

CC(C)CN(C)c1nc(Nc2ccccc2)ncc1Cl [Example 270]
logP [2, 9]: 3[b]

COCC(C)Nc1nc(Nc2ccc(C(=O)Nc3ccccc3)cc2)ncc1Br (racemic) [Example 126]
logP [2, 5]: 1.92[b]

COCC(C)Nc1nc(Nc2ccc(C)c(SC)c2)ncc1Cl (centres unmarked) [Example 154]
logP [2, 5]: 2.33[b]

C=CCNc1nc(Cl)ncc1Cl [Example V-13, 2,5-dichloro-N-(prop-2-en-1-yl)pyrimidine-4-amine]
chromatographic logP ([2]; pH 2.3, logP [a]): 2.12

COCC(C)Nc1nc(Nc2cccc(C(=O)NC(C)(C)C)c2)ncc1Cl (centres unmarked) [Example 157]
logP [2, 5]: 1.99[b]

COCC(C)Nc1nc(Nc2ccc(SC(F)(F)F)cc2)ncc1Cl (centres unmarked) [Example 88]
logP [2, 6]: 3.81[b]

COCC(C)Nc1nc(Nc2cccc(C)c2)ncc1Cl (centres unmarked) [Example 225]
logP [2, 5]: 1.98[b]

C[Si](C)(C)CNc1nc(Nc2ccccc2)ncc1Cl [Example 287]
logP [2, 9]: 2.14[b]

COCC(C)Nc1nc(Cl)ncc1Cl (centres unmarked) [Example V-1, 2,5-Dichloro-N-(3-methoxypropan-2-yl)pyrimidine-4-amine]
chromatographic logP ([2]; pH 2.3, logP [a]): 2.1

CC(C)Nc1nc(Nc2ccc(C(=O)N(C)C)cc2)ncc1Cl [Example 234]
pI50 Fum [1]: 5.3 | pI50 growth [1]: 4.6 | logP [2, 5]: 1.44[b] | logP [2, 7]: 2.27[c];

COCC(C)Nc1nc(Nc2cccc(C=O)c2)ncc1Cl (centres unmarked) [Example 244]
logP [2, 5]: 1.8[b] | logP [2, 7]: 2.75[c];

CC(C)Nc1nc(Cl)ncc1Cl [Example V-9, 2,5-dichloro-N-(propan-2-yl)pyrimidine-4-amine]
chromatographic logP ([2]; pH 2.3, logP [a]): 2.46

CCC(CO)Nc1nc(Nc2cccc(Cl)c2)ncc1Cl (centres unmarked) [Example 17]
logP [2, 8]: 1.96[a]

CC(C)Nc1nc(Nc2ccc(C(=O)N(C)C)cc2)ncc1Br [Example 245]
logP [2, 9]: 1.54[b]

CCCNc1nc(Nc2cccc(SC)c2)ncc1Cl [Example 284]
logP [2, 9]: 2.3[b] | logP ([2]; method marker [c]): 3.87[c];

CCN(C)S(=O)(=O)Cc1cccc(Nc2ncc(Cl)c(NC(C)C)n2)c1 [Example 243]
logP [2, 5]: 1.96[b] | logP [2, 7]: 3.18[c];

CNc1nc(Nc2ccc(S(=O)(=O)N(C)C)cc2)ncc1Cl [Example 26]
logP [2, 8]: 1.61[a]

CC(=O)c1ccc(Nc2ncc(Cl)c(NC3CCCCC3)n2)cc1 [Example 266]
logP ([2]; method marker [a]): 2.77[a]

CN(C)c1nc(Nc2ccc(S(=O)(=O)N(C)C)cc2)ncc1Cl [Example 27]
logP [2, 8]: 2.49[a]

C=C(C)CNc1nc(Nc2ccccc2)ncc1Cl [Example 288]
logP [2, 9]: 2.62[b]

CCCCNc1nc(Cl)ncc1Cl [Example V-16, N-(butan-1-yl)-2,5-dichloropyrimidine-4-amine]
chromatographic logP [2, 10]: 2.91

CC(=O)c1cccc(Nc2ncc(Cl)c(N(C)C)n2)c1.Cl [Example 42]
logP [2, 8]: 1.84[a]

COCCNc1nc(Nc2cc(OC)cc(OC)c2)ncc1Cl [Example 4]
logP [2, 8]: 1.67[a]

CCNc1nc(Nc2cccc(SC)c2)ncc1Cl [Example 238]
logP [2, 5]: 1.92[b] | logP [2, 7]: 3.46[c];

COc1cc(Nc2ncc(Cl)c(NC(C)C)n2)ccc1NC(C)=O [Example 181]
logP [2, 5]: 1.44[b]

COCC(C)Nc1nc(Nc2cccc(OC(F)(F)F)c2)ncc1Cl (centres unmarked) [Example 87]
logP [2, 6]: 3.14[b]

CC(=O)Nc1cccc(Nc2ncc(Cl)c(NC(C)C)n2)c1 [Example 195]
logP [2, 5]: 1.39[b]

COCC(C)Nc1nc(Nc2ccc(O)nc2)ncc1Br (centres unmarked) [II-4]
logP [a] [2, 11]: 0.58[a]

COCCNc1nc(Nc2ccccc2)ncc1Cl.Cl [Example 61]
logP [2, 8]: 1.41[a]; | logP [2, 6]: 1.41[b]

COC(=O)c1ccc(Nc2ncc(Cl)c(N(C)C)n2)cc1 [Example 39]
logP [2, 8]: 2.47[a]; | logP ([2]; method marker [c], footnote not given): 3.3[c]

COCC(C)Nc1nc(Nc2cccc(S(=O)(=O)N3CCOCC3)c2)ncc1Br (centres unmarked) [Example 120]
logP [2, 6]: 2.16[b]

COCC(C)Nc1nc(Nc2ccc(S(=O)(=O)N(C)C)cc2)ncc1Cl (centres unmarked) [Example 16]
logP [2, 8]: 2.25[a]; | logP [2, 6]: 2.26[b] | logP [a] [2, 11]: 2.25

CC(=O)c1cccc(Nc2ncc(Cl)c(NCCO)n2)c1.Cl [Example 56]
logP [2, 8]: 1.06[a]

CC(C)c1cccc(Nc2ncc(C(F)(F)F)c(Cl)n2)c1 [VIII-4, 4-Chloro-N-[3-(propan-2-yl)phenyl]-5-(trifluoromethyl)pyrimidine-2-amine]
chromatographic logP [2, 10]: 4.87

CCOC(=O)Nc1cccc(Nc2ncc(Cl)c(NC(C)COC)n2)c1 (racemic) [Example 143]
logP [2, 5]: 1.78[b]

CSc1cccc(Nc2ncc(Cl)c(N(C)C(C)C)n2)c1 [Example 219]
logP ([2]; values marked [a], pH 2.3): 3.45[a]; | logP [2, 7]: 4.64[c]

N#Cc1cnc(Nc2ccccc2)nc1Cl [VIII-3, 4-Chloro-2-(phenylamino)pyrimidine-5-carbonitrile]
chromatographic logP [2, 10]: 2.66

CCC(C)CNc1nc(Nc2ccccc2)ncc1Cl (centres unmarked) [Example 276]
logP [2, 9]: 2.37[b]

CCCNc1nc(Cl)ncc1Cl [Example V-21, 2,5-dichloro-N-propylpyrimidine-4-amine]
chromatographic logP [2, 10]: 2.75

COCC(C)Nc1nc(Nc2ccc3c(c2)OC(F)(F)C(F)(F)O3)ncc1Br (centres unmarked) [Example 75]
logP [2, 6]: 4.08[b]

CSCC(C)Nc1nc(Nc2ccccc2)ncc1Cl (centres unmarked) [Example 37]
logP [2, 8]: 2.04[a]
